According to publication PMC11667666, “Light-Driven Hybrid Nanoreactor Harnessing the Synergy of Carboxysomes and Organic Frameworks for Efficient Hydrogen Production” (ACS Catalysis, 2024):

Target: T1, recombinant α-carboxysome shell (Halothiobacillus neapolitanus, UniProt P45688+P45689+P45690)
T1 construct: gene csoS1A; whole self-assembled multi-paralog shell (about 90 nm) from pBAD-cso-2 in E. coli; CsoS1 hexamers, CsoS4 pentamers, CsoS2 linker; with Carboxysome shell vertex protein CsoS4A; Carboxysome shell vertex protein CsoS4B; Carboxysome assembly protein CsoS2
Experiment: isothermal titration calorimetry
Assay type: binding
Conditions: TBAP (50 μM) titrated into whole shell (3.75 μM); 20 mM Tris-HCl pH 8.0, 150 mM NaCl; multi-protein particle, site not resolved by ITC

T1 sequence (O85044 whole entry): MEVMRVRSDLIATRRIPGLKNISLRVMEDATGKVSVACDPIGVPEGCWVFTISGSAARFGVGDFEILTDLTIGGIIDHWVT
T1 sequence (P45688 whole entry): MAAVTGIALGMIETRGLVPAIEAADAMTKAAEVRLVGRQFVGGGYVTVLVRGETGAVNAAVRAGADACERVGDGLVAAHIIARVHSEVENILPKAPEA
T1 sequence (O85041 whole entry, further chain): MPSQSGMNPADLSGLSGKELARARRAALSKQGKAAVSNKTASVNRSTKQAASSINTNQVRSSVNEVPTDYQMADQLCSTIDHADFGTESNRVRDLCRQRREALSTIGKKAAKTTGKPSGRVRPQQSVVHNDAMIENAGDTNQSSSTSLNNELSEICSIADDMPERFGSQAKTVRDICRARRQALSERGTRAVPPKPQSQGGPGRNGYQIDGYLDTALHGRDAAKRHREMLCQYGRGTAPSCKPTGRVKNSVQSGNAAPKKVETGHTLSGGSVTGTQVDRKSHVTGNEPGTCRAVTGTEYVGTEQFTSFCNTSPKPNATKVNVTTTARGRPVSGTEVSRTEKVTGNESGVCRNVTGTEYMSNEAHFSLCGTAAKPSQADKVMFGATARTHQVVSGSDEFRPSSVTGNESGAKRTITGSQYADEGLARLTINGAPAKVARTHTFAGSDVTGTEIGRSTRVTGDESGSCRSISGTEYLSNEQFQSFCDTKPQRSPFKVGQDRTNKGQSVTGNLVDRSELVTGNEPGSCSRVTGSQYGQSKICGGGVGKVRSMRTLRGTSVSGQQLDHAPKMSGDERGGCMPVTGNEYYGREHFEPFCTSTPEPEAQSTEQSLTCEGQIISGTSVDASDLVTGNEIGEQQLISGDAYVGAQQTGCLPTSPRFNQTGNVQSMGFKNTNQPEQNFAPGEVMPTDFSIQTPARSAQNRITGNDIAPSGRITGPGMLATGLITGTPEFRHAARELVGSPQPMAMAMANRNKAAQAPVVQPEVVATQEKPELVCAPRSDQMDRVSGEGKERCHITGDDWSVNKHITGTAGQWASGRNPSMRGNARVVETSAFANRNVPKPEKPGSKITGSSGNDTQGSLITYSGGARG
T1 sequence (O85043 whole entry, further chain): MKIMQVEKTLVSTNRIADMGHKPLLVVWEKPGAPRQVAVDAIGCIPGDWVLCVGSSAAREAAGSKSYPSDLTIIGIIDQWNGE
T1 sequence (P45689 2-98): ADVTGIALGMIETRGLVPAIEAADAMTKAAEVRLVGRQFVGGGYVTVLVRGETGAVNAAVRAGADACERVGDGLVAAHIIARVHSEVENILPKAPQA
T1 sequence (P45690 whole entry): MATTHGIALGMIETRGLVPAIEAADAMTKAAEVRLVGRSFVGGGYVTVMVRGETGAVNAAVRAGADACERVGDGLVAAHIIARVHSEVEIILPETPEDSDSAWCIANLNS

## O=C(O)c1ccc(-c2cc(-c3ccc(C(=O)O)cc3)c3ccc4c(-c5ccc(C(=O)O)cc5)cc(-c5ccc(C(=O)O)cc5)c5ccc2c3c54)cc1 [TBAP, 1,3,6,8-tetra(4′-carboxyphenyl)pyrene]
  Kd: 524 nM
